Among the data in PubChem BioAssay AID256 (DTP/NCI, 2004) are T/C values, retold here.

Toxic doses and inconclusive results are not listed.

The subject of this test is CD2F1 mice, L1210 leukemia ip, survival T/C. Kind of test: NCI In Vivo Anticancer Drug Screen. Data for tumor model L1210 Leukemia (intraperitoneal) in CD2F1 (CDF1) mice. Particulars: higher = longer survival. How it is done:
The antitumor activity of compounds was measured in mice bearing transplantable tumors. Survival or tumor size were measured and the results are expressed as the measurement made in the treated group (T) divided by the measurement made in the vehicle treated control group (C). The tumor model used in this assay is L1210 Leukemia (intraperitoneal) in CD2F1 (CDF1) mice

Where [1] appears, read: endpoint: mean survival time, dose: 100.0 mg/kg/injection, schedule: Q04DX003 (ip), vehicle: saline with Tween-80.
Where [2] appears, read: endpoint: mean survival time, dose: 200.0 mg/kg/injection, schedule: Q04DX003 (ip), vehicle: saline with Tween-80.
[3] abbreviates: endpoint: mean survival time, dose: 400.0 mg/kg/injection, schedule: Q04DX003 (ip), vehicle: saline with Tween-80.
The mark [4] stands for this setting: endpoint: mean survival time, dose: 50.0 mg/kg/injection, schedule: Q01DX009 (ip), vehicle: saline with Tween-80.
The mark [5] stands for this setting: endpoint: mean survival time, dose: 100.0 mg/kg/injection, schedule: Q01DX009 (ip), vehicle: saline with Tween-80.
The mark [6] stands for this setting: endpoint: mean survival time, dose: 100.0 mg/kg/injection, schedule: Q01DX001 (ip), vehicle: saline with Tween-80.
Setting [7] is: endpoint: mean survival time, dose: 200.0 mg/kg/injection, schedule: Q01DX009 (ip), vehicle: saline with Tween-80.

In the case of `CC1Cc2c([nH]c(=O)n(-c3ccccc3)c2=O)O1` (stereo not given), the T/C (endpoint: mean survival time, dose: 100.0 mg/kg/injection, schedule: Q01DX001 (ip), vehicle: saline) was 103 % of control; the T/C (endpoint: mean survival time, dose: 200.0 mg/kg/injection, schedule: Q01DX001 (ip), vehicle: saline) is 92 % of control; the T/C (endpoint: mean survival time, dose: 400.0 mg/kg/injection, schedule: Q01DX001 (ip), vehicle: saline) is 92 % of control.
Regarding `Cc1ccc(S(=O)(=O)OC2C(O)OCC3OC(C)(C)OC32)cc1` (stereo not given), the T/C is, setting by setting: under setting [1], 98 % of control; under setting [2], 102 % of control; under setting [3], 93 % of control.
The matching figures for `CC(=O)Nc1ccc(N=CN(C)C)cc1`: 95 % of control, 95 % of control and 112 % of control.
For `CCCCCCCCCCCCCCCCOc1ccc(S(=O)(=O)NC(C)(C)C)cc1N`, in that order: 96 % of control, 93 % of control and 95 % of control.
With `O=C(C#Cc1ccccc1)N1CCCCC1`, the T/C runs as follows: (endpoint: mean survival time, dose: 25.0 mg/kg/injection, schedule: Q04DX002 (ip), vehicle: saline with Tween-80) 99 % of control; (endpoint: mean survival time, dose: 50.0 mg/kg/injection, schedule: Q04DX002 (ip), vehicle: saline with Tween-80) 99 % of control; (endpoint: mean survival time, dose: 100.0 mg/kg/injection, schedule: Q04DX002 (ip), vehicle: saline with Tween-80) 101 % of control; (endpoint: mean survival time, dose: 200.0 mg/kg/injection, schedule: Q04DX002 (ip), vehicle: saline with Tween-80) 92 % of control.
As to `C[C@@]1(CO)[C@H](O)CC[C@@]2(C)[C@H]1CC[C@H]1C[C@@H]3C[C@@]12CC[C@@]3(O)COC(=O)CN`, the T/C (endpoint: median survival time, dose: 0.2 mg/kg/injection, schedule: Q01DX009 (ip), vehicle: saline + alcohol) was 100 % of control; the T/C (endpoint: median survival time, dose: 0.4 mg/kg/injection, schedule: Q01DX009 (ip), vehicle: saline + alcohol) was 106 % of control; the T/C (endpoint: median survival time, dose: 0.8 mg/kg/injection, schedule: Q01DX009 (ip), vehicle: saline + alcohol) is 107 % of control; the T/C (endpoint: median survival time, dose: 1.6 mg/kg/injection, schedule: Q01DX009 (ip), vehicle: saline + alcohol) is 102 % of control; the T/C (endpoint: median survival time, dose: 5.0 mg/kg/injection, schedule: Q03HX027 (ip), vehicle: saline + alcohol) was 101 % of control; the T/C (endpoint: median survival time, dose: 6.25 mg/kg/injection, schedule: Q01DX009 (ip), vehicle: saline + alcohol) is 105 % of control. The T/C is, setting by setting: (endpoint: median survival time, dose: 10.0 mg/kg/injection, schedule: Q03HX027 (ip), vehicle: saline + alcohol) 109 % of control; (endpoint: median survival time, dose: 12.5 mg/kg/injection, schedule: Q01DX009 (ip), vehicle: saline + alcohol) 106 % of control; (endpoint: median survival time, dose: 20.0 mg/kg/injection, schedule: Q03HX027 (ip), vehicle: saline + alcohol) 116 % of control; (endpoint: median survival time, dose: 25.0 mg/kg/injection, schedule: Q01DX005 (ip), vehicle: saline) 112 % of control; (endpoint: median survival time, dose: 25.0 mg/kg/injection, schedule: Q01DX009 (ip), vehicle: saline + alcohol) 107 % of control; (endpoint: median survival time, dose: 36.0 mg/kg/injection, schedule: Q01DX005 (ip), vehicle: saline) 115 % of control. The T/C (endpoint: median survival time, dose: 36.0 mg/kg/injection, schedule: Q01DX009 (ip), vehicle: saline) is 110 % of control; the T/C (endpoint: median survival time, dose: 50.0 mg/kg/injection, schedule: Q01DX005 (ip), vehicle: saline) is 116 % of control; the T/C (endpoint: median survival time, dose: 50.0 mg/kg/injection, schedule: Q01DX009 (ip), vehicle: saline + alcohol) was 116 % of control; the T/C (endpoint: median survival time, dose: 60.0 mg/kg/injection, schedule: Q01DX005 (ip), vehicle: saline) is 116 % of control; the T/C (endpoint: median survival time, dose: 60.0 mg/kg/injection, schedule: Q01DX009 (ip), vehicle: saline) was 110 % of control; the T/C (endpoint: median survival time, dose: 100.0 mg/kg/injection, schedule: Q01DX005 (ip), vehicle: saline) is 122 % of control. Also, the T/C runs as follows: (endpoint: median survival time, dose: 100.0 mg/kg/injection, schedule: Q01DX009 (ip), vehicle: saline) 151 % of control; (endpoint: median survival time, dose: 166.6 mg/kg/injection, schedule: Q01DX009 (ip), vehicle: saline) 153 % of control; (endpoint: median survival time, dose: 12.5 micrograms/kg/injection, schedule: Q01DX009 (ip), vehicle: saline + alcohol) 103 % of control; (endpoint: median survival time, dose: 25.0 micrograms/kg/injection, schedule: Q01DX009 (ip), vehicle: saline + alcohol) 103 % of control; (endpoint: median survival time, dose: 50.0 micrograms/kg/injection, schedule: Q01DX009 (ip), vehicle: saline + alcohol) 103 % of control; (endpoint: median survival time, dose: 100.0 micrograms/kg/injection, schedule: Q01DX009 (ip), vehicle: saline + alcohol) 101 % of control. For the same compound, the T/C (endpoint: median survival time, dose: 200.0 micrograms/kg/injection, schedule: Q01DX009 (ip), vehicle: saline + alcohol) is 102 % of control.
`CCCCN1C(=O)C(=O)N(c2ccc(S(N)(=O)=O)cc2)C1=O`: the T/C under setting [4] was 100 % of control and the T/C under setting [5] was 89 % of control.
With `NC(=O)c1ncn(C2OC(COP(=O)(O)O)C(O)C2O)n1` (stereo not given), the T/C by setting is: (endpoint: mean survival time, dose: 12.5 mg/kg/injection, schedule: Q01DX005 (ip), vehicle: water) 98 % of control; (endpoint: mean survival time, dose: 25.0 mg/kg/injection, schedule: Q01DX005 (ip), vehicle: water) 101 % of control; (endpoint: mean survival time, dose: 50.0 mg/kg/injection, schedule: Q01DX005 (ip), vehicle: water) 102 % of control; (endpoint: mean survival time, dose: 100.0 mg/kg/injection, schedule: Q01DX005 (ip), vehicle: water) 98 % of control; (endpoint: mean survival time, dose: 200.0 mg/kg/injection, schedule: Q01DX005 (ip), vehicle: water) 102 % of control.
As for `CCCCN=Cc1ccccc1O.CCCCN=Cc1ccccc1O.[Cr]`, the T/C under setting [6] is 93 % of control.
As for `CC#CCOCC(O)CO` (stereo not given), the T/C is, setting by setting: (endpoint: mean survival time, dose: 25.0 mg/kg/injection, schedule: Q01DX009 (ip), vehicle: water) 98 % of control; (endpoint: mean survival time, dose: 50.0 mg/kg/injection, schedule: Q01DX009 (ip), vehicle: water) 107 % of control; (endpoint: mean survival time, dose: 100.0 mg/kg/injection, schedule: Q01DX009 (ip), vehicle: water) 104 % of control; (endpoint: mean survival time, dose: 200.0 mg/kg/injection, schedule: Q01DX009 (ip), vehicle: water) 115 % of control.
As to `COC1=CCc2c(OC)ccc(OC)c2C1`, the T/C (endpoint: mean survival time, dose: 12.5 mg/kg/injection, schedule: Q01DX009 (ip), vehicle: other) was 103 % of control; the T/C (endpoint: mean survival time, dose: 25.0 mg/kg/injection, schedule: Q01DX009 (ip), vehicle: other) was 103 % of control; the T/C (endpoint: mean survival time, dose: 50.0 mg/kg/injection, schedule: Q01DX009 (ip), vehicle: other) is 93 % of control; the T/C (endpoint: mean survival time, dose: 100.0 mg/kg/injection, schedule: Q01DX009 (ip), vehicle: other) was 95 % of control; the T/C (endpoint: mean survival time, dose: 200.0 mg/kg/injection, schedule: Q01DX009 (ip), vehicle: other) is 88 % of control.
As to `Cc1cccc[n+]1CC(=O)c1ccccc1`, the T/C by setting is: (endpoint: mean survival time, dose: 25.0 mg/kg/injection, schedule: Q04DX003 (ip), vehicle: saline) 104 % of control; (endpoint: mean survival time, dose: 50.0 mg/kg/injection, schedule: Q04DX003 (ip), vehicle: saline) 96 % of control; (endpoint: mean survival time, dose: 100.0 mg/kg/injection, schedule: Q04DX003 (ip), vehicle: saline) 96 % of control.
Turning to `CN(C)Cc1ccccc1`, the T/C is 104 % of control under setting [6] and 110 % of control (endpoint: mean survival time, dose: 200.0 mg/kg/injection, schedule: Q01DX001 (ip), vehicle: saline with Tween-80).
For `CCCCNC(=S)N(CCCC)CCCC`, the T/C under setting [5] was 102 % of control and the T/C under setting [7] is 87 % of control.
`O=C1c2ccccc2C(=O)c2c(Cl)cccc21`: the T/C reads like this: under setting [5], 88 % of control; under setting [1], 93 % of control; under setting [7], 86 % of control; under setting [2], 93 % of control; (endpoint: mean survival time, dose: 400.0 mg/kg/injection, schedule: Q01DX009 (ip), vehicle: saline with Tween-80) 90 % of control; under setting [3], 91 % of control.
Consider `OC(c1ccccc1)(C1SCCCS1)C1SCCCS1`, for which the T/C is 94 % of control under setting [4], 97 % of control under setting [5] and 94 % of control under setting [7].
Turning to `Cc1c2c(cc3c1CCC1(C)C3CCC1C(C)CCC(C)C(C)C)CCCC2` (stereo not given), the T/C was 94 % of control under setting [1], 94 % of control under setting [2] and 89 % of control under setting [3].
Regarding `O=C1[C@@H]2C3C=CC([C@H]4C(=O)N(CO)C(=O)[C@@H]34)[C@@H]2C(=O)N1CO`, the T/C (endpoint: median survival time, dose: 25.0 mg/kg/injection, schedule: Q01DX005 (ip), vehicle: Klucel (hydroxypropylcellulose) (HPC)) is 107 % of control; the T/C (endpoint: median survival time, dose: 50.0 mg/kg/injection, schedule: Q01DX005 (ip), vehicle: Klucel (hydroxypropylcellulose) (HPC)) was 109 % of control; the T/C (endpoint: median survival time, dose: 200.0 mg/kg/injection, schedule: Q01DX005 (ip), vehicle: Klucel (hydroxypropylcellulose) (HPC)) is 101 % of control.
